Source: ChEMBL document CHEMBL4373747 (ACS Med Chem Lett, 2020)
Activity calls are given as the source filed them. The rule behind the calls is not given here.

Experiments:
MV4-11 [1] = experiment: Induction of apoptosis in human MV4-11 cells assessed as late apoptotic cells at 4 uM incubated for 18 hrs by annexin V FITC and PI based flow cytometry (reference value: 9.2 to 9.63 %); type: functional
MV4-11 [2] = experiment: Induction of apoptosis in human MV4-11 cells assessed as early apoptotic cells at 2 uM incubated for 18 hrs by annexin V FITC and PI based flow cytometry (reference value: 19.46 to 22.17 %); type: functional
[3] = target: Histone deacetylase (Homo sapiens) (UniProt Q13547+O15379+Q9UBN7+Q92769+Q9UQL6+Q8WUI4+Q9BY41+Q96DB2+P56524+Q9UKV0+Q969S8); experiment: Inhibition of HDAC in human MV4-11 cells assessed as […] in acetylated histone H3 at 0.1 to 10 uM incubated for 6 hrs by Western blot analysis; type: cell-based
Histone deacetylase 2 = Histone deacetylase 2 (Homo sapiens, UniProt Q92769); experiment: Inhibition of recombinant full length human HDAC2 expressed in baculovirus infected Sf9 cells using FAM-RHKK-Ac as substrate incubated for 17 hrs by electrophoretic mobility shift assay
Histone deacetylase 2, sequence (Q92769 whole entry): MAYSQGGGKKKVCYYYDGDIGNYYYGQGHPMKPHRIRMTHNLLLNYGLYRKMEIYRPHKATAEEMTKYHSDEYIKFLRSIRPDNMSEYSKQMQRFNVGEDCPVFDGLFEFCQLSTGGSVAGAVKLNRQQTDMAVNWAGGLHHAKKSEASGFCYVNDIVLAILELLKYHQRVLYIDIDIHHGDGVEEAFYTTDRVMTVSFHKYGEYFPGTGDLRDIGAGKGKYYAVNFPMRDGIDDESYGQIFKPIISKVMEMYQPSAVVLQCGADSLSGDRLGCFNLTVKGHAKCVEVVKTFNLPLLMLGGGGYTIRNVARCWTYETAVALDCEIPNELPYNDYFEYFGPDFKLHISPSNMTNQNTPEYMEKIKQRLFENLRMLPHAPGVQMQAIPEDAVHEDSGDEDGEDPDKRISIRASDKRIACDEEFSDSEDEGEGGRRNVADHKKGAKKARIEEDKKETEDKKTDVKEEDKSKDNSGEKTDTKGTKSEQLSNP

Histone deacetylase 4 = Histone deacetylase 4 (Homo sapiens, UniProt P56524); experiment: Inhibition of recombinant full length human HDAC4 expressed in baculovirus infected Sf9 cells using FAM-RHKK-TFAc as substrate incubated for 1.5 hrs by electrophoretic mobility shift assay
Histone deacetylase 4, sequence (P56524 whole entry): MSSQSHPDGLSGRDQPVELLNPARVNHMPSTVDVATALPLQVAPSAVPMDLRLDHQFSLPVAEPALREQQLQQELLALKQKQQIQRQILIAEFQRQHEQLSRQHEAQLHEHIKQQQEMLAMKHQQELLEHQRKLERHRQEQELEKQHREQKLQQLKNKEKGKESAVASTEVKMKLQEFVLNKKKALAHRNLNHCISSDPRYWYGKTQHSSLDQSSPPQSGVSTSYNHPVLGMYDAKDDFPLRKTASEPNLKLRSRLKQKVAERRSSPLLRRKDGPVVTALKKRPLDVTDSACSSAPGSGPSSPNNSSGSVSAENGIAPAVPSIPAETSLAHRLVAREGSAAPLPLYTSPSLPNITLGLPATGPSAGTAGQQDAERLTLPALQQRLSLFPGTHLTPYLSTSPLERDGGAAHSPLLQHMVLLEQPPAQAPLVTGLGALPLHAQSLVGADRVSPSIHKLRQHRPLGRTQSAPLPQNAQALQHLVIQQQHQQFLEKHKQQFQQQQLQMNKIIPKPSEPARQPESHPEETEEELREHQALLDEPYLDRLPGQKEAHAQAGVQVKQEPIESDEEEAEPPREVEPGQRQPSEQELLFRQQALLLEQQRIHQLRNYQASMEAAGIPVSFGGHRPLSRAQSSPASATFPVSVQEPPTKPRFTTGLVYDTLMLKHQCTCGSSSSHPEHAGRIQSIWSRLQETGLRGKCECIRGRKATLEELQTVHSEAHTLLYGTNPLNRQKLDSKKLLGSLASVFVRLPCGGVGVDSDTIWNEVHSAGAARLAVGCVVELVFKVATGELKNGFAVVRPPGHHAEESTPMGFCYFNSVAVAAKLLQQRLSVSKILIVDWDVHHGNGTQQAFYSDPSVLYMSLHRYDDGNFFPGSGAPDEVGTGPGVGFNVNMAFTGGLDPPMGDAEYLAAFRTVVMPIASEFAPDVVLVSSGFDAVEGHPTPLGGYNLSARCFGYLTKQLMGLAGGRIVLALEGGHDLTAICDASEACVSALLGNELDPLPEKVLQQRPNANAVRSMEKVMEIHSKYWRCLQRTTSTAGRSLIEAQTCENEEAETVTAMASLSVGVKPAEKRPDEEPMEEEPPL

[4] = Protein binding in CD-1 mouse plasma at 1 uM incubated for 6 hrs by LCMS analysis; type: ADME, cell-free; conditions: CD-1, mouse, read-out: PPB (converted)
MV4-11 [5] = experiment: Induction of apoptosis in human MV4-11 cells assessed as late apoptotic cells at 2 uM incubated for 18 hrs by annexin V FITC and PI based flow cytometry (reference value: 9.2 to 9.63 %); type: functional
[6] = Efflux ratio of apparent permeability in human Caco2 cells incubated for 2 hrs by LC/MS analysis; type: ADME, cell-based, Caco-2; conditions: Caco-2
MV4-11 [7] = experiment: Induction of apoptosis in human MV4-11 cells assessed as early apoptotic cells at 0.5 uM incubated for 18 hrs by annexin V FITC and PI based flow cytometry (reference value: 19.46 to 22.17 %); type: functional
[8] = target: T1, Protein deacetylase HDAC6 (Homo sapiens) (UniProt Q9UBN7); experiment: Inhibition of HDAC6 in human MV4-11 cells assessed as increase in acetylated alpha-tubulin incubated for 6 hrs by Western blot analysis; type: cell-based
T1 sequence (whole entry): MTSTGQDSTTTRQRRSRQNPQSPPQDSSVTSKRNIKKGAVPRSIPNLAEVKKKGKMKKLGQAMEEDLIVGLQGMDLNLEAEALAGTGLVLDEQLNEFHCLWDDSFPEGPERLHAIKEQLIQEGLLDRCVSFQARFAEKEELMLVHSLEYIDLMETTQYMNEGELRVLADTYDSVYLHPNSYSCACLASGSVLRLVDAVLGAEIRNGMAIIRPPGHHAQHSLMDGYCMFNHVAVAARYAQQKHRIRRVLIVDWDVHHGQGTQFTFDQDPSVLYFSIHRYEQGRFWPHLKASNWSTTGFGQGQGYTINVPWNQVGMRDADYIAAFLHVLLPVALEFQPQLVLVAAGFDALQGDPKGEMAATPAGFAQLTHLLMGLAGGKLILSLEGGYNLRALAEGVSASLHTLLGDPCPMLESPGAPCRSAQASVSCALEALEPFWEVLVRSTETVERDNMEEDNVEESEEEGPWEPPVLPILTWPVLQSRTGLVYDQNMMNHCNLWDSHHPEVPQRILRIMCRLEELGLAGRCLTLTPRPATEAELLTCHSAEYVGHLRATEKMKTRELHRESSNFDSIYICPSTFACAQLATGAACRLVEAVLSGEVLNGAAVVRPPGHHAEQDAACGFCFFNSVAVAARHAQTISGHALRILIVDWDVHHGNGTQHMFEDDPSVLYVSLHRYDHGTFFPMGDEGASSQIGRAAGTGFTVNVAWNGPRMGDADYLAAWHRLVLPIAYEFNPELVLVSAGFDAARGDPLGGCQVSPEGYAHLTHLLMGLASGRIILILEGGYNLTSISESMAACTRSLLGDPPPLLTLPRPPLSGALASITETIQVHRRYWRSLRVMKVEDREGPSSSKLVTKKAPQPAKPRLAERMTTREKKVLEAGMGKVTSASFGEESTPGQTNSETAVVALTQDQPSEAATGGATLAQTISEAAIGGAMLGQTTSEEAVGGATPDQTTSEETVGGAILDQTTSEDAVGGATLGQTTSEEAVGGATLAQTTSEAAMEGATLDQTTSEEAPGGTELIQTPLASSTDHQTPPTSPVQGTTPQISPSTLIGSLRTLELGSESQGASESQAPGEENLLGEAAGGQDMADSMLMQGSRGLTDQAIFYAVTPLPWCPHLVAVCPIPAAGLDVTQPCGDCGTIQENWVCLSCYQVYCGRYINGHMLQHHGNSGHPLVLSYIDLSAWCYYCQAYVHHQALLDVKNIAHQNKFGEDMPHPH

MV4-11 [9] = experiment: Cytotoxicity against human MV4-11 cells assessed as reduction in cell viability incubated for 72 hrs by cell-titer blue assay; type: functional, cell-based; conditions: MV4-11, 72 h
Histone deacetylase 11 = target: T2, Histone deacetylase 11 (Homo sapiens, UniProt Q96DB2); experiment: Inhibition of recombinant full length human HDAC11 expressed in baculovirus infected Sf9 cells using FAM-RHKK-TFAc as substrate incubated for 17 hrs by electrophoretic mobility shift assay
T2 sequence (Q96DB2 whole entry): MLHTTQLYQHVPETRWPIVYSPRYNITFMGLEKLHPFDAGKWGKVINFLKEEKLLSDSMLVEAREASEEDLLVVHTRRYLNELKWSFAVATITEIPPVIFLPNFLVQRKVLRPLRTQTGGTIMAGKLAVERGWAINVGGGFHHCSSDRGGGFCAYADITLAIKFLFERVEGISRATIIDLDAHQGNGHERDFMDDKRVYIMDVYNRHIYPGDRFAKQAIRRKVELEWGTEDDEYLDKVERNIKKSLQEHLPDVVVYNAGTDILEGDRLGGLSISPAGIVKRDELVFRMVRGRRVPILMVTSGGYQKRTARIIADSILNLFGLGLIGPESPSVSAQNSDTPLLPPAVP

Histone deacetylase 1 = Histone deacetylase 1 (Homo sapiens, UniProt Q13547); experiment: Inhibition of recombinant full length human HDAC1 expressed in baculovirus infected Sf9 cells using FAM-RHKK-Ac as substrate incubated for 17 hrs by electrophoretic mobility shift assay
Histone deacetylase 1, sequence (Q13547 whole entry): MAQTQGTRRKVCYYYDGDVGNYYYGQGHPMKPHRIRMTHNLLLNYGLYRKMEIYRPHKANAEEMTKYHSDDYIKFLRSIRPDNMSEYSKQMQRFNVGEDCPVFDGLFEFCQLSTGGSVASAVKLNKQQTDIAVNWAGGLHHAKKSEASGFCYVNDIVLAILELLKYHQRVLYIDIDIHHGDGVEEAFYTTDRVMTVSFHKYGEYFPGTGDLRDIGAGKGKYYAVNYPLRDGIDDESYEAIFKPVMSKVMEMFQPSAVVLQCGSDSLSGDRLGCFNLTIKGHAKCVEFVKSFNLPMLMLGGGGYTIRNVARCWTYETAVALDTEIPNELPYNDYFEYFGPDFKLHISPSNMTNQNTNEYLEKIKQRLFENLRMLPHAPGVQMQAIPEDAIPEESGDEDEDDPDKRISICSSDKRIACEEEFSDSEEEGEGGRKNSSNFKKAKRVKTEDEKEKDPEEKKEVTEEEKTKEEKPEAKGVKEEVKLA

MV4-11 [10] = experiment: Induction of apoptosis in human MV4-11 cells assessed as late apoptotic cells at 1 uM incubated for 18 hrs by annexin V FITC and PI based flow cytometry (reference value: 9.2 to 9.63 %); type: functional
MV4-11 [11] = experiment: Induction of apoptosis in human MV4-11 cells assessed as late apoptotic cells at 0.5 uM incubated for 18 hrs by annexin V FITC and PI based flow cytometry (reference value: 9.2 to 9.63 %); type: functional
[12] = Oral bioavailability in CD-1 mouse at 20 mg/kg measured upto 24 hrs by LC/MS/MS analysis; type: ADME, organism-based; conditions: in vivo
[13] = Cytotoxicity against human MRC9 cells assessed as reduction in cell viability incubated for 72 hrs by cell-titer blue assay; type: cell-based; conditions: MRC9, 72 h

inhibition [3]: Active
IC50 (Histone deacetylase 2): > 1000 nM
IC50 (Histone deacetylase 4): > 1000 nM
fraction unbound at 6 h, 1 µM [4]: 0.047
efflux ratio at 2 h [6]: 0.64
inhibition [8]: Dose-dependent effect
IC50 (Histone deacetylase 11): > 1000 nM
IC50 (Histone deacetylase 1): 605 nM
bioavailability [12]: 19.8%
SMILES: CC(C)(C)c1ccc(C(=O)Nc2ccc(C(=O)NO)cc2)cc1
Activity (MV4-11 [1]): 38.48%
Activity (MV4-11 [2]): 27.83%
Activity (MV4-11 [5]): 30.97%
Activity (MV4-11 [7]): 20.69%
IC50 (MV4-11 [9]): 576 nM
Activity (MV4-11 [10]): 16.08%
Activity (MV4-11 [11]): 11.7%
IC50 [13]: 33200 nM
